Assay results reported in the supplement of paper PMC10307832.

Columns and labels:
Experiment in all cases: relative viability (nuclei count vs DMSO), 5 days (fraction); higher = more cells survive
CUDC-101 + Navitoclax = compound: C#Cc1cccc(Nc2ncnc3cc(OC)c(OCCCCCCC(=O)NO)cc23)c1 [CUDC-101] + CC1(C)CCC(c2ccc(Cl)cc2)=C(CN2CCN(c3ccc(C(=O)NS(=O)(=O)c4ccc(N[C@H](CCN5CCOCC5)CSc5ccccc5)c(S(=O)(=O)C(F)(F)F)c4)cc3)CC2)C1 [Navitoclax] (partner 0.5 µM)
In short: (§1)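 Cells from lung cancer lines were seeded into 1536-well plates and, one day later, dosed by pin tool. Treatments were either a single drug or a fixed dose of an anchor drug with five library-drug doses (not always all listed) in √10 steps. After 5 days, nuclei were stained in a one-step fixation (final 0.05% Triton X-100, 1% formaldehyde, 1 ug/ml Hoechst) and counted on 4× images, and relative viability is the treated-to-vehicle nuclei ratio, as the median of duplicate plates.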

NVP-TAE684 + Navitoclax = compound: COc1cc(N2CCC(N3CCN(C)CC3)CC2)ccc1Nc1ncc(Cl)c(Nc2ccccc2S(=O)(=O)C(C)C)n1 [NVP-TAE684] + CC1(C)CCC(c2ccc(Cl)cc2)=C(CN2CCN(c3ccc(C(=O)NS(=O)(=O)c4ccc(N[C@H](CCN5CCOCC5)CSc5ccccc5)c(S(=O)(=O)C(F)(F)F)c4)cc3)CC2)C1 [Navitoclax] (partner 0.5 µM)
In short: as §1

NVP-TAE684 + Crizotinib = compound: COc1cc(N2CCC(N3CCN(C)CC3)CC2)ccc1Nc1ncc(Cl)c(Nc2ccccc2S(=O)(=O)C(C)C)n1 [NVP-TAE684] + C[C@@H](Oc1cc(-c2cnn(C3CCNCC3)c2)cnc1N)c1c(Cl)ccc(F)c1Cl [Crizotinib] (partner 1 µM)
In short: as §1

Vandetanib + Olaparib = compound: COc1cc2/c(=N/c3ccc(Br)cc3F)nc[nH]c2cc1OCC1CCN(C)CC1 [Vandetanib] + O=C(c1cc(Cc2n[nH]c(=O)c3ccccc23)ccc1F)N1CCN(C(=O)C2CC2)CC1 [Olaparib] (partner 8 µM)
In short: as §1

NVP-TAE684 + Pemetrexed = compound: COc1cc(N2CCC(N3CCN(C)CC3)CC2)ccc1Nc1ncc(Cl)c(Nc2ccccc2S(=O)(=O)C(C)C)n1 [NVP-TAE684] + Nc1nc2[nH]cc(CCc3ccc(C(=O)N[C@@H](CCC(=O)O)C(=O)O)cc3)c2c(=O)[nH]1 [Pemetrexed] (partner 0.2 µM)
In short: as §1

Cell Line | relative viability (CUDC-101 + Navitoclax; first compound 0.01 µM) | relative viability (CUDC-101 + Navitoclax; first compound 0.03162 µM) | relative viability (CUDC-101 + Navitoclax; first compound 0.1 µM) | relative viability (CUDC-101 + Navitoclax; first compound 0.3162 µM) | relative viability (CUDC-101 + Navitoclax; first compound 1 µM) | relative viability (NVP-TAE684 + Navitoclax; first compound 0.2 µM) | relative viability (NVP-TAE684 + Navitoclax; first compound 0.6325 µM) | relative viability (NVP-TAE684 + Navitoclax; first compound 2 µM) | relative viability (NVP-TAE684 + Crizotinib; first compound 0.2 µM) | relative viability (NVP-TAE684 + Crizotinib; first compound 0.6325 µM) | relative viability (NVP-TAE684 + Crizotinib; first compound 2 µM) | relative viability (Vandetanib + Olaparib; first compound 0.02 µM) | relative viability (Vandetanib + Olaparib; first compound 0.06325 µM) | relative viability (Vandetanib + Olaparib; first compound 0.2 µM) | relative viability (Vandetanib + Olaparib; first compound 0.6325 µM) | relative viability (Vandetanib + Olaparib; first compound 2 µM) | relative viability (NVP-TAE684 + Pemetrexed; first compound 0.2 µM) | relative viability (NVP-TAE684 + Pemetrexed; first compound 0.6325 µM) | relative viability (NVP-TAE684 + Pemetrexed; first compound 2 µM)
NCI-H2170 | 0.628 | 0.636 | 0.648 | 0.599 | 0.313 | 0.56 | 0.585 | 0.591 | 1.31 | 1.15 | 0.996 | 0.639 | 0.615 | 0.546 | 0.609 | 0.663 | 0.274 | 0.27 | 0.228
NCI-H2009 | 1.23 | 1.05 | 1.18 | 1.16 | 1.1 | 1.2 | 1.15 | 0.95 | 1.07 | 0.968 | 0.788 | 0.649 | 0.668 | 0.658 | 0.688 | 0.716 | 1.06 | 1.01 | 0.894
NCI-H1437 | 1.13 | 1.07 | 1.22 | 1.16 | 0.931 | 1.31 | 1.12 | 0.631 | 0.818 | 1.06 | 0.795 | 0.588 | 0.667 | 0.643 | 0.615 | 0.612 | 0.354 | 0.327 | 0.243
NCI-H2087 | 0.945 | 1.07 | 1.04 | 0.98 | 0.727 | 1.11 | 1.17 | 0.766 | 0.942 | 1.14 | 0.642 | 0.497 | 0.567 | 0.644 | 0.613 | 0.639 | 0.679 | 0.707 | 0.57
PC-14 | 1.08 | 1.05 | 1.06 | 0.754 | 0.265 | 1.13 | 1.05 | 0.894 | 0.994 | 1.02 | 0.75 | 0.25 | 0.248 | 0.26 | 0.217 | 0.117 | 0.145 | 0.134 | 0.124
H3255 | 0.688 | 0.435 | 0.174 | 0.126 | 0.0597 | 0.6 | 0.417 | 0.382 | 0.988 | 0.646 | 0.7 | 0.516 | 0.518 | 0.594 | 0.509 | 0.27 | 0.531 | 0.519 | 0.449
NCI-H460 | 1.23 | 1.12 | 1.15 | 1.06 | 0.965 | – | 1.14 | 0.407 | 1.16 | 0.831 | 0.247 | 0.37 | 0.399 | 0.336 | 0.45 | 0.462 | 0.0526 | 0.0587 | 0.0483
HOP-62 | 1.17 | 0.954 | 1.02 | 1.02 | 1.01 | 1.23 | 1.13 | 1.1 | – | 0.997 | 0.823 | 0.51 | 0.397 | 0.265 | 0.373 | 0.447 | 0.34 | 0.392 | 0.345
